Substitutions are numbered along the chain they refer to. Where two headings read alike, the source gives them in different places.
Legend:
IEC6 cells = test: Cell viability assay (CellTiterGlo); conditions: Rattus norvegicus, IEC-6, 144 h, read-out: IEC-6 (IC50, nM)
LNCap cells = test: Cell viability assay (CellTiterGlo); type: cell-based; conditions: Homo sapiens, 144 h, 6 days incubation, CellTiterGlo, read-out: LNCap (IC50)
[1] = target: T1, ligand binding domain of the glucocorticoid receptor (HEK293 cells stably expressing) (Homo sapiens, UniProt P04150); test: GR antagonism assay (luciferase reporter)
T1 sequence (P04150 524-758 limits assumed): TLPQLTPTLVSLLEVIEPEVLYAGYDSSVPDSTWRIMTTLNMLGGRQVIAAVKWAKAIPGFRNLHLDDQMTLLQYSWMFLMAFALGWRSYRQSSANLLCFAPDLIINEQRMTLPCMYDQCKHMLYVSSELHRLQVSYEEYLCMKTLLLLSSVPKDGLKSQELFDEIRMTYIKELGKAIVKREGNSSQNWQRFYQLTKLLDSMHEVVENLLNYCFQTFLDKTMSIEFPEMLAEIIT

[2] = target: T2, full-length androgen receptor (HEK293 cells stably expressing) (Homo sapiens, UniProt P10275); test: AR antagonism assay (luciferase reporter)
T2 sequence (P10275 1-920): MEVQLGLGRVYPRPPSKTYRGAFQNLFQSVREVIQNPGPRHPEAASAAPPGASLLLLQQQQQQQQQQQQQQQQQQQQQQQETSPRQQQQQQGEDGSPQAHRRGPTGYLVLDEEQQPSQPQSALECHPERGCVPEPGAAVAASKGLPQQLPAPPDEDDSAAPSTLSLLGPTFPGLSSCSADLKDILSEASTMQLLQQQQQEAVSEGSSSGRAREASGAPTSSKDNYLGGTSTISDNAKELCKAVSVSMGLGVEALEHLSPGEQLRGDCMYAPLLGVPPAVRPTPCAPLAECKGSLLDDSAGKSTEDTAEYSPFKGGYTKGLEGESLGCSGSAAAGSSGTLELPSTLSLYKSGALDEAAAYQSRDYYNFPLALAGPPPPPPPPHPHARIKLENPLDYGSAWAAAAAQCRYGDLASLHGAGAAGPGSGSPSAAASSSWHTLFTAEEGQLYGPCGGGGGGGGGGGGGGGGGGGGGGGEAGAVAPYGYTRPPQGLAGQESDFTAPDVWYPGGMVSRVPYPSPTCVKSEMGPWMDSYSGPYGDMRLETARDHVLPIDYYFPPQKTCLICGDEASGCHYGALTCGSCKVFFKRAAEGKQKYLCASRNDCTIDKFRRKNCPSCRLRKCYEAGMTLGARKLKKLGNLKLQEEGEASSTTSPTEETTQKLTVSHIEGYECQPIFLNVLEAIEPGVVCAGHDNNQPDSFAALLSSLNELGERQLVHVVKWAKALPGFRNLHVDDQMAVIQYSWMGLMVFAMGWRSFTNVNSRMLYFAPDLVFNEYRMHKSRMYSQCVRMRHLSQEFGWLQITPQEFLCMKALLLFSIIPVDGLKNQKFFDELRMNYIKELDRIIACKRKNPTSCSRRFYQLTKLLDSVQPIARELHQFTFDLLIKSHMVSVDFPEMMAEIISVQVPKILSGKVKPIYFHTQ
Method: AR antagonism assay: To evaluate AR antagonist activity, test compound was added to the assay plate (top dose 10 μM, 3 fold serial dilution, 10 point dose response). HEK293 cells stably expressing the full-length androgen receptor were seeded at a density of 20000 cells/well in the assay plate. The assay plate was then incubated at room temperature for 10 minutes and at 37° C. 5% CO2 for 20 minutes. Testosterone was added to the assay plate at 1 nM final concentration and the assay plate incubated at 37° C., 5% CO2 for 20 h. […] Steady-glo was added to the assay plate and mixed at room temperature for 20 minutes on an orbital shaker, before reading out on the En Vision plate reader.

[3] = target: T3, Progesterone PR-B receptors from human breast carcinoma T47D cells (Homo sapiens, UniProt P06401); test: PR binding assay ([3H] Progesterone displacement)
T3 sequence (P06401 1-933): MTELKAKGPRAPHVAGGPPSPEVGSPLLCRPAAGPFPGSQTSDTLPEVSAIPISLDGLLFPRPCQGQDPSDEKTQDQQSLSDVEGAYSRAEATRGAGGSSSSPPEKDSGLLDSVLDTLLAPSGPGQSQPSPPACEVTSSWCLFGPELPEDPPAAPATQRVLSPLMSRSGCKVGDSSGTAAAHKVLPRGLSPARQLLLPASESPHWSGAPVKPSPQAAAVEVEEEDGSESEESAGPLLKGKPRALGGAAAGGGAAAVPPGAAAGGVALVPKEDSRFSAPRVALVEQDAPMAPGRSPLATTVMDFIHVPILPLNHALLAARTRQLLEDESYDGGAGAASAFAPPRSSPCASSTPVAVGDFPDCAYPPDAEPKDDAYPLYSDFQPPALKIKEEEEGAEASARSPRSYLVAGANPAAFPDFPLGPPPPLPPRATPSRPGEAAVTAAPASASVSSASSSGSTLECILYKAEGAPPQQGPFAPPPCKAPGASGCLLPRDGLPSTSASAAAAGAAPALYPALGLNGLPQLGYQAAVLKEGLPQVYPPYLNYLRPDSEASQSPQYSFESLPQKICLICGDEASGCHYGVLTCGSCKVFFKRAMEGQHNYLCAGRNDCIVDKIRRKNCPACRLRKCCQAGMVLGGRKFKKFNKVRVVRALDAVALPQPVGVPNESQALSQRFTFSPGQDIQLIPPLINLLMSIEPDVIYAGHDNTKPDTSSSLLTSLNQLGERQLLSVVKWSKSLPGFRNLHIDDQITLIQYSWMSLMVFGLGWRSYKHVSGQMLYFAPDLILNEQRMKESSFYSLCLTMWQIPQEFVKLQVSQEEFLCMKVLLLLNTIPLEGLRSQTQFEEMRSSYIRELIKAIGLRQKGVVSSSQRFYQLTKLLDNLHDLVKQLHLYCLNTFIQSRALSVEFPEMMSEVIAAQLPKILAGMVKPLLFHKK

T47D cells = test: Cell viability assay (CellTiterGlo); type: cell-based; conditions: Homo sapiens, 144 h
[4] = target: T4, AR (cytosol from LnCaP cells) (Homo sapiens, UniProt P10275, T878A); test: AR binding assay (3H-R1881 displacement)
T4 sequence (P10275 1-920 T878A): T2 sequence (P10275 1-920) with T878A
Method: The plate was then centrifuged at 3000 rpm for 30 minutes at 4° C.

22Rv1 cells = test: Cell viability assay (CellTiterGlo); conditions: Homo sapiens, 22Rv1, 144 h, read-out: 22RV1 (IC50, nM)
[5] = 6 days incubation, CellTiterGlo, read-out: T47D (IC50)

| SMILES | IC50 (IEC6 cells) [nM] | IC50 (LNCap cells) [nM] | IC50 [1] [nM] | IC50 [2] [nM] | IC50 [3] [nM] | IC50 (T47D cells; [5]) [nM] | IC50 [4] [nM] | IC50 (22Rv1 cells) [nM] | IC50 (T47D cells; read-out: T47D (IC50, nM)) [nM] |
| --- | --- | --- | --- | --- | --- | --- | --- | --- | --- |
| CC[C@@]1(O)C(=O)OCc2c1cc1n(c2=O)Cc2cc3c(CN4CCN(CCCCCCN(C)c5ccc([C@H]6C[C@@]7(C)[C@@H](CC[C@]7(OC(C)=O)C(C)=O)[C@@H]7CCC8=CC(=O)CCC8=C76)cc5)CC4)cccc3nc2-1 [Compound 38, (8S,11R,13S,14S,17R)-17-acetyl-11-(4-((6-(4-(((S)-4-ethyl-4-hydroxy-3,14-dioxo-3,4,12,14-tetrahydro-1H-pyrano[3′,4′:6,7]indolizino[1,2-b]quinolin-10-yl)methyl)piperazin-1-yl)hexyl)(methyl)amino)phenyl)-13-methyl-3-oxo-2,3,6,7,8,11,12,13,14,15,16,17-dodecahydro-1H-cyclopenta[a]phenanthren-17-yl acetate] | > 1000 | 101 to 1000 | 10 to 100 | > 1000 | < 10 | 101 to 1000 | < 10 | – | – |
| CC[C@@]1(O)C(=O)OCc2c1cc1n(c2=O)Cc2cc3c(CN(C)C)c(OC(=O)N4CCN(C(=O)[C@H](CCCNC(N)=O)NC(=O)[C@@H](NCCCCCCN(C)c5ccc([C@H]6C[C@@]7(C)[C@@H](CC[C@]7(OC(C)=O)C(C)=O)[C@@H]7CCC8=CC(=O)CCC8=C76)cc5)C(C)C)CC4)ccc3nc2-1 [Compound 39, (S)-10-((dimethylamino)methyl)-4-ethyl-4-hydroxy-3,14-dioxo-3,4,12,14-tetrahydro-1H-pyrano[3′,4′:6,7]indolizino[1,2-b]quinolin-9-yl 4-((S)-2-((S)-2-((6-((4-((8S,11R,13S,14S,17R)-17-acetoxy-17-acetyl-13-methyl-3-oxo-2,3,6,7,8,11,12,13,14,15,16,17-dodecahydro-1H-cyclopenta[a]phenanthren-11-yl)phenyl)(methyl)amino)hexyl)amino)-3-methylbutanamido)-5-ureidopentanoyl)piperazine-1-carboxylate] | > 1000 | – | 101 to 1000 | > 1000 | < 10 | – | 10 to 100 | 101 to 1000 | 101 to 1000 |
| CC[C@@]1(O)C(=O)OCc2c1cc1n(c2=O)Cc2cc3c(CN4CCN(C(=O)OCCCCN(C)c5ccc([C@H]6C[C@@]7(C)[C@@H](CC[C@]7(OC(C)=O)C(C)=O)[C@@H]7CCC8=CC(=O)CCC8=C76)cc5)CC4)c(O)ccc3nc2-1 [Compound 41, 4-((4-((8S,11R,13S,14S,17R)-17-acetoxy-17-acetyl-13-methyl-3-oxo-2,3,6,7,8,11,12,13,14,15,16,17-dodecahydro-1H-cyclopenta[a]phenanthren-11-yl)phenyl)(methyl)amino)butyl 4-(((S)-4-ethyl-4,9-dihydroxy-3,14-dioxo-3,4,12,14-tetrahydro-1H-pyrano[3′,4′:6,7]indolizino[1,2-b]quinolin-10-yl)methyl)piperazine-1-carboxylate] | 101 to 1000 | 10 to 100 | < 10 | 101 to 1000 | < 10 | 10 to 100 | 10 to 100 | – | – |

— patent US20260102501A1, “ANTI-CANCER NUCLEAR HORMONE RECEPTOR-TARGETING COMPOUNDS” (Nuvation Bio Inc., priority 2022, published 2026)
